Assay results taken from patent publication EP4793271A1, “NEUROPROTECTIVE AGENT” (National Center of Neurology and Psychiatry, priority 2023, dated 2025).

How the values were obtained:
[1] = test system: primary cultured cells of mouse fetus-derived dorsal root ganglia (DRGs); assay: Suppression of axonal degeneration after axotomy in DRG explant culture; format: cell-based; settings: minimum concentration at which axonal degeneration was suppressed (DI 0.3 or less), 24 hours after axotomy; for minimal effective concentration: Mus musculus, read-out: Evaluation on protection against degeneration
Experimental: The compound of the present invention was studied for its protective effect against axonal injury using primary cultured cells of mouse fetus-derived dorsal root ganglia (DRGs).
DRGs were collected from a fetus derived from an ICR mouse (13.5 days of pregnancy). DRGs were cultured using a plate coated by incubation with 0.1 mg/mL poly-L-lysine at 4°C for 24 hours or longer, washing with PBS, and then incubation with 2.5 µg/mL Cultrex Mouse Laminin I at 37°C for 4 to 6 hours.
One of DRGs collected was plated to each well of the coated 24-well plate. The DRG was cultured in a nicotinamide-free medium for neuron (supplemented with 10% FBS, 1 mM glutamine, 50 ng/mL NGF2.5S, and penicillin-streptomycin) for 24 hours at maximum from the start of culture and then cultured in a nicotinamide-free medium for neuron (supplemented with 2% MACS NeuroBrew-21, 50 ng/mL NGF2.5S, 1% Glutamax, 20 µM uridine, 20 µM 5-fluoro-2'-deoxyuridine, and penicillin-streptomycin) for 7 to 8 days.
The nicotinamide-free medium for neuron was prepared so as to have the same constituents as those of the composition published in a previously reported paper (Brewer et al., J. Neuroscience Research 35: 567-576) except for nicotinamide with reference to this composition.
The test compound is dissolved in DMSO and added to cells such that the final concentration of DMSO is 0.1% (1000-fold dilution). 10 mM, 1 mM, 100 µM, 10 µM, 1 µM, and 100 nM samples of the test compound are prepared and added at a 1000-fold dilution to cells.
Axotomy was carried out by scooping out a cell body portion of the cultured DRG with a chip for a micropipette. The test compound was added at the following concentrations (final concentration: 10 µM, 1 µM, 100 nM, 10 nM, 1 nM, and 100 pM) within 30 minutes after axotomy. The compound was evaluated for its protective effect against axonal degeneration by imaging (Leica DMIL microscope, 20× objective lens) the state of neurites 24 hours after axotomy and evaluating the degree of degeneration. The degree of degeneration was quantified using a program uniquely developed using the R language. A degeneration index (DI) was used as an indicator for the degree of degeneration, and the ratio of the area of a fragmented axon to the total area of axons was calculated as defined in the equation of Expression 2. Suppressed axonal degeneration was evaluated when the value of DI was 0.3 or less. The minimum concentration at which axonal degeneration was suppressed was determined for each compound. Degeneratioin index (DI) = (Degenerated axons)/(All axons) [formula]
The axonal protective activity was evaluated as A ≤ 0.01 µM, 0.01 µM < B ≤ 0.1 µM, and 0.1 µM < C ≤ 1 µM depending on the minimum concentration at which axonal degeneration was suppressed.

[2] = target: T1, nicotinamide phosphoribosyl transferase (NAMPT) (Homo sapiens, UniProt P43490); assay: NAMPT activity measurement (NMN fluorescence detection); format: biochemical; settings: NAMPT recombinant protein, 10 µM Nam; for IC50: read-out: Evaluation on NAMPT inhibitory
T1 construct: purchased Medical & Biological Laboratories Co., Ltd. (MBL)
T1 sequence (P43490 whole entry, species assumed): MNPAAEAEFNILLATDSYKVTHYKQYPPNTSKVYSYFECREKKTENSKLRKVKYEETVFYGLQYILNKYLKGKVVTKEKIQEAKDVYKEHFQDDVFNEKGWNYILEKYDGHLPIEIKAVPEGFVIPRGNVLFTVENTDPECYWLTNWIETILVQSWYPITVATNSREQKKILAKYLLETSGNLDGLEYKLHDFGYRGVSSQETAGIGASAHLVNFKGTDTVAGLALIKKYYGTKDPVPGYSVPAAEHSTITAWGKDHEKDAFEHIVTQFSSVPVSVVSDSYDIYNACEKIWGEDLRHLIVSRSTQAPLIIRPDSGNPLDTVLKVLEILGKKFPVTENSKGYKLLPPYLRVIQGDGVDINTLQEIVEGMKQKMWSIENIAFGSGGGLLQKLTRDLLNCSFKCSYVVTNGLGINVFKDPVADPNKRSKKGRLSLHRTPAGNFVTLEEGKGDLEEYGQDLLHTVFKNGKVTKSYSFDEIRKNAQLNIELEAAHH
Experimental: The compound of the present invention was evaluated for the ability to influence the activity of nicotinamide phosphoribosyl transferase (NAMPT) which is an enzyme that metabolizes nicotinamide (Nam), not the target SARM1.
The enzymatic reaction of NAMPT was carried out by adding NAMPT recombinant protein (manufactured by Medical & Biological Laboratories Co., Ltd. (MBL)) to a reaction solution containing the substrate Nam, phosphoribosylpyrophosphate (PRPP), ATP, and the like (composition: […] (pH = 7.4), 2 µM ATP, 0.5 µM PRPP, 0.02% BSA, 2 µM DTT, 1.2 µM MgCl2, and 10 µM Nam). The amount of the reaction product NMN was detected by detecting the fluorescent signal of a fluorescent substance obtained through the reaction of 2-acetylbenzofuran with NMN using SpectraMax M2 (Molecular Devices) (excitation: 421 nm, fluorescence: 480 nm) (Moriya et al, Chemical Communications 2013, 49 11500). The test compound was added at final concentrations of 10 µM, 3 µM, 1 µM, 300 nM, 100 nM, 30 nM, 10 nM, and 3 nM to the NMN synthesis reaction system described above. The NMN-derived fluorescent signal was normalized against a control group and plotted as the function of the test compound concentrations, and the compound was evaluated for its NAMPT inhibitory effect by calculating IC50.
The IC50 value was evaluated as ∘ for ≥1 µM and as Δ for ≥0.1 µM.

hSARM1 = target: T2, hSARM1 (Homo sapiens, UniProt Q6SZW1); assay: Human SARM1 activity measurement in HEK293 cells transiently transfected with ΔN-hSARM1 (PC6 fluorescent probe); format: cell-based; parameters: expressed in transfected cells; host or cells: HEK293, pcDNA3 expression vector; settings: inhibition rate; compound 30 µM; PC6 50 µM; HEK293 cells expressing ΔN-hSARM1; approximately 48 hours from transfection; read-out: Evaluation on hSARM1 inhibitory
T2 sequence (Q6SZW1 28-724): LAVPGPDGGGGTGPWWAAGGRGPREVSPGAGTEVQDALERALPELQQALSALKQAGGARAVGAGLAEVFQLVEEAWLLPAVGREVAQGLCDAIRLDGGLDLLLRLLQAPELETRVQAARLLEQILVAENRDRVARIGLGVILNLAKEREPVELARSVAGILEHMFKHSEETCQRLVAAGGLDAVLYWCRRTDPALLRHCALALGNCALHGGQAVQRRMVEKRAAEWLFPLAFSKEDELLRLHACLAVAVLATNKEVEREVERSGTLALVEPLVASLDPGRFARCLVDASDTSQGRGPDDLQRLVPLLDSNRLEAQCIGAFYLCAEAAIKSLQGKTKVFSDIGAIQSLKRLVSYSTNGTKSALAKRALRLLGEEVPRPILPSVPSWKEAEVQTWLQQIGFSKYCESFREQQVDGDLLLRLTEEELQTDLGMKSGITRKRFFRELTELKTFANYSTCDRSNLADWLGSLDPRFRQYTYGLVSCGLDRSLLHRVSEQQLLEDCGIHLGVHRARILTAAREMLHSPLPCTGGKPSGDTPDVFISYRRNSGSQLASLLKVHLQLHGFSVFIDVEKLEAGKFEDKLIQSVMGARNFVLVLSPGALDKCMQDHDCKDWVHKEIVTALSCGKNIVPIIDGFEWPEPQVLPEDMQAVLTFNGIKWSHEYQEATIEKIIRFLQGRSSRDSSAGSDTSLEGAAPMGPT
Experimental: HEK293 cells cultured in a prepared medium of nicotinamide-free DMEM (Dulbecco's modified Eagle medium) supplemented with 10% FBS (BioSera), a 1% penicillin-streptomycin solution (FUJIFILM Wako Pure Chemical Corp.), 5 μM nicotinamide were inoculated at approximately 50,000 cells/well to a 96-well microplate, and the cells were cultured at 37°C under 5% CO2, transiently transfected on the next day with a pcDNA3 expression vector containing a DNA sequence (SEQ ID NO: 1) deficient in a mitochondrial targeting sequence encoded by an N-terminal 78-base sequence in cDNA encoding human sterile α- and armadillo-motif-containing protein (hSARM1) using PEI MAX(R) reagent (PolySciences Inc.), and forced to express ΔN-hSARM1 (SEQ ID NO: 2). Approximately 8 hours later, PC6, which reacts as a substrate of SARM1-specific base exchange reaction and functions as a fluorescent probe, was added thereto at a final concentration of 50 μM, and intracellular hSARM1 activity was measured (Li et al, eLife 2021 10: e67381). A compound for inhibitory activity evaluation was added at a final concentration of 30 μM at the same time with PC6, while dimethyl sulfoxide (Nacalai Tesque Inc.) was added to samples of a control group at the same time with PC6. The cells were incubated at 37°C under 5% CO2 for approximately 48 hours from transfection, followed by fluorescent signal measurement using SpectraMax M2 (Molecular Devices) (excitation: 405 nm, fluorescence: 525 nm, fluorescence cutoff: 515 nm). Results of this screening are reported as an inhibition rate (%) relative to a negative control defined as follows by using fluorescence intensity measured from a control group without transfection with ΔN-hSARM1 as a background whereas using fluorescence intensity measured from a control group transfected with ΔN-hSARM1 as the negative control. Inhibitory rate (%) = 100-(([…]-Background))/((Signalofthenegativecontrol-Background)) × 100 [formula] The nicotinamide-free medium was prepared so as to have the same composition as that of DMEM having known composition which is generally used in the art except for nicotinamide. […]

Evaluation on NAMPT inhibitory [2]	inhibition at 30 µM (hSARM1)	IC50 [2]	Compound	minimal effective concentration [1]	Evaluation on protection against degeneration [1]
○			NCc1cccc(CNC(=O)c2cccnc2)n1 [Compound 148]	0.1 to 1 µM	
		≥ 100 nM	O=C(NCCCCCC1CCN(CCO)CC1)c1cccnc1 [compound 2]	≤ 0.01 µM	
		≥ 100 nM	O=C(NCCCCCCCCOCCOc1ccc([N+](=O)[O-])c2nonc12)c1cccnc1 [compound 5]	≤ 0.01 µM	
○			COC(=O)C(CCCCNC(=O)c1cccnc1)NC(=O)c1cccnc1 (stereo not shown) [compound 44]		
○			O=C(NCCCCC(NC(=O)c1cccnc1)C(=O)O)c1cccnc1 (stereo not shown) [compound 45]		
○			NC(=O)C(CCCCNC(=O)c1cccnc1)NC(=O)c1cccnc1 (stereo not shown) [compound 46]		
○			COC(=O)C(CCCNC(=O)c1cccnc1)NC(=O)c1cccnc1 (stereo not shown) [compound 48]	0.1 to 1 µM	
○			NC(=O)C(CCCNC(=O)c1cccnc1)NC(=O)c1cccnc1 (stereo not shown) [compound 50]		
○			NCCOCCOCCNC(=O)c1cccnc1 [compound 107]	≤ 0.01 µM	

The remaining lines, values behind:

Compound	Evaluation on NAMPT inhibitory [2]	inhibition at 30 µM (hSARM1)	IC50 [2]	minimal effective concentration [1]	Evaluation on protection against degeneration [1]
O=C(NCc1ccc(NC(=O)c2ccccc2)c(Cl)c1)c1cccnc1 [Compound 111]	○	> 10%		≤ 0.01 µM	
O=C(NCc1ccc(NC(=O)c2cccnc2)c(Cl)c1)c1cccnc1 [Compound 112]	○	> 10%			B (0.01 µM < B ≤ 0.1 µM)
O=C(NCc1ccc(NC(=O)C2CCCCC2)nc1)c1cccnc1 [Compound 113]	○	> 75%		≤ 0.01 µM	
O=C(NCc1ccc(NC(=O)C2CCOCC2)nc1)c1cccnc1 [Compound 114]	○	> 75%		≤ 0.01 µM	
O=C(CCc1ccccc1)Nc1ccc(CNC(=O)c2cccnc2)cn1 [Compound 115]	○	> 75%		≤ 0.01 µM	
O=C(NCc1ccc(NC(=O)c2cccc(F)c2)nc1)c1cccnc1 [Compound 116]	○	> 75%		≤ 0.01 µM	
O=C(NCc1ccc(NC(=O)c2cccc3ccccc23)nc1)c1cccnc1 [Compound 121]			≥ 100 nM	0.01 to 0.1 µM	
O=C(NCc1cccc(CNC(=O)c2cc(F)cc(F)c2)n1)c1cccnc1 [Compound 152]	○	> 25%			
CN(C)c1ccc(/C=C/C(=O)Nc2ccc(CNC(=O)c3cccnc3)cn2)cc1 [Compound 181]			≥ 100 nM	≤ 0.01 µM	
O=C(NCCN(CCNC(=O)c1cccnc1)C(=O)c1cccnc1)c1cccnc1 [compound 36]	○	> 10%			
CCNC(=O)C(CCCCNC(=O)c1cccnc1)NC(=O)c1cccnc1 (stereo not shown) [compound 47]	○				
O=C(NCCCC(NC(=O)c1cccnc1)C(=O)O)c1cccnc1 (stereo not shown) [compound 49]	○				
CCNC(=O)C(CCCNC(=O)c1cccnc1)NC(=O)c1cccnc1 (stereo not shown) [compound 51]	○				
O=C(/C=C/c1cccnc1)NCc1ccccc1NC(=O)/C=C/c1cccnc1 [compound 60]	○	> 10%			
O=C(NCc1ccc(NS(=O)(=O)c2ccccc2)nc1)c1cccnc1 [compound 79]	○	> 10%			
[N-]=[N+]=NCc1cccc(CNC(=O)c2cccnc2)n1 [compound 90]	○	> 10%			
O=C(NCc1cccc(CN2Cc3ccccc3C2=O)n1)c1cccnc1 [compound 92]	○	> 10%			
O=C(Nc1ccccc1CCc1ccccc1NC(=O)c1cccnc1)c1cccnc1 [compound 100]	○			0.01 to 0.1 µM	
CN(CCCCCCN(C)C(=O)c1cccnc1)C(=O)c1cccnc1 [compound 102]	○			≤ 0.01 µM	
